Values quoted from earlier work as cited in patent US11751566B2, “Growth regulator concentrate and use thereof” (FINE AGROCHEMICALS LIMITED, priority 2013, dated 2023).

CCC(=O)C1C(=O)CC(C(=O)O)CC1=O (centres unmarked) [Prohexadione]
solubility in solvents (including water): low solubility

C=C1C[C@]23C[C@@]1(O)CC[C@H]2[C@@]12C=C[C@H](O)[C@@](C)(C(=O)O1)[C@H]2[C@@H]3C(=O)O [GA3, Gibberellic acid]
solubility in organic polar solvent (solution as generally provided) (organic polar solvent, like an alcohol): 3-4 wt %
